Experimental findings from patent publication US20060115458A1, “Material for repairing biological tissues, product for repairing biological tissues, and method of manufacturing material for repairing biological tissues” (OLYMPUS CORPORATION, priority 2004, published 2006) are described below.

For experiment [1], the system named is normal human osteoblast NHOst. Briefly: Proliferation rate of osteoblasts cultured with metal salts (TetraColor ONE). It is filed as cell-based. The note with it: as concentration became higher; 2 weeks culture; control group = 100%; FIG. 1.
Protocol: (§1) As a medium, α-MEM medium containing β-sodium glycerophosphate and fetal calf serum was used.
(§2) The cell culturing method was such that about 1×10^4 osteoblasts were seeded in each well in a collagen type I coated 24 well microplate. Then after 24 hours the product was replaced with 1 ml of medium containing a prescribed concentration of metal salts, after which it was further replaced with a medium containing the same concentration of metal salts three times per week, and the culturing was performed for 2 weeks.
The proliferation rate was measured as follows. 1 ml of medium containing 20 μl/ml of living cell measuring reagent, TetraColor ONE (Seikagaku Corporation) was added into each well. After 2 hours of culturing, the absorbency at 450 nm (control wavelength was 600 nm) was measured. The proliferation rate of the respective experimental groups was obtained assuming that the absorbancy of the control group was 100%.
In experiment [2] the test system is normal human osteoblast NHOst. Briefly: Differentiation rate of osteoblasts cultured with metal salts (calcium content per well). It is filed as cell-based. The note with it: as concentration became higher; 2 weeks culture; calcium content of control group = 100%; FIG. 2.
Protocol: as §1, §2
The differentiation rate was measured as follows. 1 ml of 0.1N hydrochloric acid was added into each well and left at room temperature for 15 hours to obtain the hydrochloric acid extract of each well. Using calcium C-Test Wako (Wako Pure Chemical Industries, Ltd.), 10 μl of hydrochloric acid extract was added with 1 ml of 0.88 M monoethanolamine buffer (pH 11.0), then 100 μl of 0.63 mM ortho-cresolphthalein complexone and 100 μl of 69 mM 8-quinolinol. After 15 minutes of reaction at room temperature, the absorbancy at 570 nm was measured to determine the calcium content per well. The differentiation rate of the respective experimental groups was obtained assuming that the calcium content of the control group was 100%.

In the case of `[Cl][Nb]([Cl])([Cl])([Cl])[Cl]` [niobium pentachloride], in experiment [1], the “proliferation rate of osteoblasts” value is “increased the proliferation rate”. In addition, the “differentiation rate of osteoblasts” value in experiment [2] is given as “increased the differentiation rate”.
